Measured values: patent US9079915B2, “Thienyl- and furanyl-isoquinolinones and methods for using them” (priority 2008, dated 2015)
Where a name gives a salt, the structure may show the parent alone.

Experiments:
[1] = Microsomal stability, C57 mouse liver microsomes; assay type: in vitro ADME; conditions: 0.5 mg/mL protein
Protocol: (§1) The assay protocol was described in Summerfield S G, Read K, Begley D J, Obradovic T, Hidalgo I J, Coggon S, Lewis A V, Porter R A, Jeffrey P 2007. Central Nervous System Drug Disposition: The Relationship between in Situ Brain Permeability and Brain Free Fraction. J Pharmacol Exp Ther, 322(1):205-213; and Li Di, E. Kerns, S. Li, S. Petusky, “High Throughput Metabolic Stability Assay for Insoluble Compounds”, Int. J. Pharm., 317, 54-60, 2006.
(§2) The samples were incubated with liver microsomes from rat, mouse, and human at 1 μM at microsomal protein concentration of 0.5 mg/mL at 37° C. in the presence of NADPH cofactor. At both time 0 and 15 minutes incubation, cold acetonitrile was added to the wells to stop the reaction. The solution was centrifuged and the supernatants were analyzed using LC-MS-MS. “Phase I” represents Phase I metabolism-oxidative metabolism by microsomes and “Phase II” represents Phase I oxidative metabolism (stated above) plus cofactors added that allow for Phase II (non-oxidative, conjugative) metabolism to take place.

[2] = Brain (B)-Plasma (P) dialysis; assay type: in vitro ADME; conditions: for Kp at 5 h, 10 μM: diluted plasma or brain homogenate vs PBS, 37° C., read-out: Brain-Plasma Dialysis B/P Ratio; for B/P ratio divided by MDCK efflux ratio at 10 μM: read-out: Brain-Plasma Dialysis B/P/efflux ratio (ER)
Protocol: 2. Brain (B)-Plasma (P) Dialysis
DMSO stock solution of 1 mM was prepared and 10 μL was added to 990 uL plasma (1 plasma:3 PBS) or brain homogeneous (1 brain:12 PBS). The final concentration was 10 μM test compound with 1% DMSO. The dialysis was setup with 200 uL PBS vs. 200 uL diluted plasma or diluted brain homogenates with test compounds. The dialysis plate was incubated at 37° C., 70 RPM for 5 hours. At the end of the incubation, 150 μL PBS, 50 uL plasma and 50 uL of brain homogenates were sampled from the dialysis device. Each of the samples was matched with PBS, plasma and brain homogenates to give consistent matrix material. Cold acetonitrile of 300 μL was added to the sample to precipitate the proteins and tissues. The solutions were centrifuged and the supernatants were transferred for LC-MS-MS analysis. Four replicates were preformed for each test compound. Data was calculated according to Summerfield S G, Read K, Begley D J, Obradovic T, Hidalgo I J, Coggon S, Lewis A V, Porter R A, Jeffrey P 2007. Central Nervous System Drug Disposition: The Relationship between in Situ Brain Permeability and Brain Free Fraction.

[3] = Microsomal stability, human liver microsomes; assay type: in vitro ADME; conditions: 0.5 mg/mL protein
Protocol: as §1, §2

[4] = MDCK permeability assay (efflux ratio); assay type: in vitro ADME, Canine; conditions: dog, MDCK-MDR1, pH 7.4, MDR-MDCK cells, 37° C., Papp(B-A)/Papp(A-B)
Protocol: 1. MDCK Permeability Assay
Multi Drug Resistance-Madin-Darby Canine Kidney (MDR-MDCK) cells were obtained from NIH (Bethesda, Md., USA). Cells were plated on Costar 3401 Transwell 12 well, 12 mm diameter, 0.4 um pore size plates (Costar, Mass., USA) and cultured for at least 6 days prior to the transport assay. The cells were carefully pre-washed with Hank's balanced salt solution containing 10 mM HEPES and 15 mM D-glucose at pH 7.4, which was also used as the assay buffer. The test compounds were dosed on the apical side (A-B) or the basolateral side (B-A) with 0.2 mM Lucifer Yellow (500 μL into apical side, 1500 μL into basolateral side). The test compounds in the apical or basolateral chambers were at an initial concentration of 10 μM. The plates were incubated at 37° C. with 5% CO2 and 90% relative humidity for 2 hours. One hundred microliters of receiver solution (basolateral side for A-B transport experiment, apical side for B-A transport experiment) was transferred to a 96 well plate for LC-MS-MS quantization of the test compound concentration and fluorometer quantization of Lucifer Yellow.
Quality control compounds and TEER measurements were run to assure proper operation of the assay (see Table 2). The TEER values of each well use for the assay should be ≧1400 ohm·cm^2.

[5] = biological target: T1, hrPARP-1 (human recombinant, Trevigen) (Homo sapiens, UniProt P09874); assay: Functional assessment of human PARP-1 enzymatic activity; assay type: biochemical; conditions: 1 U hrPARP-1, 15 μg/mL activated DNA, 5 μM NAD+, 20 min room temperature
T1 construct: purchased Trevigen
Protocol: Functional Assessment of Human PARP-1 Enzymatic Activity
hrPARP-1 (human recombinant, Trevigen), Activated DNA (Sigma), 6(5H)-phenanthridinone (PND), (Sigma), NAD+ (Calbiochem), PARP-1 assay buffer (50 mM Tris, 2 mM MgCl2, pH 8.0), 20% acetophenone in EtOH, 2 M KOH
88% formic acid, 110° C. oven, Flexstation Plate Reader.
Compound plates were prepared by making a series of 1:3 dilutions for each tested compound, 10 steps of each at 20 μL in DMSO starting from a concentration of 5 mM. NAD^+ (39 μL of a 6.4 μM solution) were added to each well of a 96-well flat bottom fluorescent assay plate. Test compound (1 μL) was added to each well. To initiate the reaction, 10 μL of PARP (contains 5 U of PARP and 75 μg/mL activated DNA) was added with a final 1 U hrPARP-1, 15 μg/mL activated DNA and 5 μM of NAD^+. The highest concentration used for test compounds was 100 μM. The plates were incubated at room temperature on a shaker. After 20 min, 20 μL of 2 M KOH and 20 μL of 20% acetophenone were added. The plate was incubated 10 min. at 4° C., and 90 μL of 88% formic acid was added. After incubating in an 110° C. oven for 5 min, the plate was cooled to room temperature and read of a Flexstation Plate Reader (excitation at 360 nm, emission at 445 nm).
LSW data analysis software was used to generate PARP-1 IC50s.

[6] = Microsomal stability, rat liver microsomes; assay type: in vitro ADME; conditions: 0.5 mg/mL protein
Protocol: as §1, §2

[7] = NADPH, Phase I, read-out: Microsomal Stability C57 Mouse Phase I t1/2
[8] = Phase I plus Phase II cofactors, read-out: Microsomal Stability C57 Mouse Phase I & II t1/2
[9] = NADPH, Phase I, read-out: Microsomal Stability Human Phase I t1/2
[10] = Phase I plus Phase II cofactors, read-out: Microsomal Stability Human Phase I & II t1/2
[11] = NADPH, Phase I, read-out: Microsomal Stability Rat Phase I t1/2
[12] = Phase I plus Phase II cofactors, read-out: Microsomal Stability Rat Phase I & II t1/2

T1 sequence (P09874 whole entry): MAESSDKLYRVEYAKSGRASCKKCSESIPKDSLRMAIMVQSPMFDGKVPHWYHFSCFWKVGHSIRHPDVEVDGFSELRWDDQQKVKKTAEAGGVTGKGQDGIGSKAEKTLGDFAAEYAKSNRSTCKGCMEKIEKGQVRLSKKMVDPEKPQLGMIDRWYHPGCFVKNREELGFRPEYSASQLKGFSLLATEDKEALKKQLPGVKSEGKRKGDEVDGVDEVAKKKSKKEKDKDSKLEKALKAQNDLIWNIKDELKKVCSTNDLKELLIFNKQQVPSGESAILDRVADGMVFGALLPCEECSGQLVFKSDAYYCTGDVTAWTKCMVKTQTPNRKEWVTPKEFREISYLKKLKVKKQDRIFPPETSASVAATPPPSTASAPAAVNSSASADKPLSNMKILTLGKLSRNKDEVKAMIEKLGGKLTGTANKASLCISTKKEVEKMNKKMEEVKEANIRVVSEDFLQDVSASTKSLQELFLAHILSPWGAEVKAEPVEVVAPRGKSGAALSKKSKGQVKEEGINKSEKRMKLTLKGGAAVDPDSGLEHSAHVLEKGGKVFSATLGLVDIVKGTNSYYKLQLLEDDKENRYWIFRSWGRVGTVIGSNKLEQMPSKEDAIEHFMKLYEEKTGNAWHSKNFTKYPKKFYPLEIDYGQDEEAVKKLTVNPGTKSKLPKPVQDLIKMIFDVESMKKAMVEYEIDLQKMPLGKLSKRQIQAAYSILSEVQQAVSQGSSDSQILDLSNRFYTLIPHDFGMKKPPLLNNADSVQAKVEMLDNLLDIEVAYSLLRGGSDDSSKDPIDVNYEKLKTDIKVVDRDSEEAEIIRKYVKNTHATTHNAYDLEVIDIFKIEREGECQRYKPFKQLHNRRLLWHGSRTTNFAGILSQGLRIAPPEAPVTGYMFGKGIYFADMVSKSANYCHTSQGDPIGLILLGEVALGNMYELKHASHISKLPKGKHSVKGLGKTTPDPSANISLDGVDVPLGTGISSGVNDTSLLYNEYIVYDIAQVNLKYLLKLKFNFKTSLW

Row | half-life at 1 μM [1, 7] [min] | half-life at 1 μM [1, 8] [min] | Kp at 5 h, 10 μM [2] | B/P ratio divided by MDCK efflux ratio at 10 μM [2] | half-life at 1 μM [3, 9] [min] | half-life at 1 μM [3, 10] [min] | efflux ratio at 2 h, 10 μM [4] | IC50 [5] [nM] | half-life at 1 μM [6, 11] [min] | half-life at 1 μM [6, 12] [min] | melting point [°C] | SMILES
1 | 4 | 3 | 1.12 | 1.12 | 7 | 5 | 0.9 | 35 | 3 | 3 |  | O=c1[nH]c2sc(CN3CCC(Br)CC3)cc2c2c(O)cccc12 [Example 15, 2-[(4-Bromopiperidin-1-yl)methyl]-9-hydroxythieno[2,3-c]isoquinolin-5(4H)-one]
2 |  |  |  |  |  |  |  | 1060 |  |  |  | O=c1[nH]c2sc(CN(Cc3ccccc3)Cc3ccccc3)cc2c2c(O)cccc12 [Example 16, 2-[(Dibenzylamino)methyl]-9-hydroxythieno[2,3-c]isoquinolin-5(4H)-one]
3 |  |  |  |  |  |  |  | 373 |  |  |  | CN(Cc1ccccc1)Cc1cc2c([nH]c(=O)c3cccc(O)c32)s1 [Example 17, 2-{[Benzyl(methyl)amino]methyl}-9-hydroxythieno[2,3-c]isoquinolin-5(4H)-one]
4 | 27 | > 30 | 1.25 | 0.12 | 19 | 17 | 10.4 | 4.7 | 10 | 18 |  | O=c1[nH]c2sc(CN3CCCCC3)cc2c2c(O)cccc12 [Example 11, 9-Hydroxy-2-(piperidin-1-ylmethyl)thieno[2,3-c]isoquinolin-5(4H)-one]
5 | 4 | 5 | 0.79 | 0.79 | 6 | 4 | 0.8 | 3.3 | 5 | 5 |  | O=c1[nH]c2sc(CN3CCSC3)cc2c2c(O)cccc12 [Example 12, 9-Hydroxy-2-(1,3-thiazolidin-3-ylmethyl)thieno[2,3-c]isoquinolin-5(4H)-one]
6 | > 30 | > 30 | 1.03 | < 0.05 | > 30 | > 30 | > 20 | 81 | > 30 | > 30 |  | O=c1[nH]c2sc(CN3CCCC3)cc2c2c(O)cccc12 [Example 14, 9-Hydroxy-2-(pyrrolidin-1-ylmethyl)thieno[2,3-c]isoquinolin-5(4H)-one]
7 | 28 | 24 | 1.53 |  | > 30 | > 30 |  | 86 | < 1 | < 1 |  | CC(C)NCc1cc2c([nH]c(=O)c3cccc(O)c32)s1 [Example 13, 9-Hydroxy-2-{[(1-methylethyl)amino]methyl}thieno[2,3-c]isoquinolin-5(4H)-one]

Further lines, the compound ahead of its results:

Row | SMILES | half-life at 1 μM [1, 7] [min] | half-life at 1 μM [1, 8] [min] | Kp at 5 h, 10 μM [2] | B/P ratio divided by MDCK efflux ratio at 10 μM [2] | half-life at 1 μM [3, 9] [min] | half-life at 1 μM [3, 10] [min] | efflux ratio at 2 h, 10 μM [4] | IC50 [5] [nM] | half-life at 1 μM [6, 11] [min] | half-life at 1 μM [6, 12] [min] | melting point [°C]
8 | CN(C)Cc1cc2c([nH]c(=O)c3cccc(F)c32)s1 [Example 5, 2-[(Dimethylamino)methyl]-9-fluorothieno[2,3-c]isoquinolin-5(4H)-one hydrochloride] |  |  |  |  |  |  |  | 200 |  |  | 
9 | CN(C)Cc1cc2c([nH]c(=O)c3cc(F)ccc32)s1 [Example 4, 2-[(Dimethylamino)methyl]-7-fluorothieno-[2,3-c]isoquinolin-5(4H)-one hydrochloride] |  |  |  |  |  |  |  | 100 |  |  | 
10 | CN(C)Cc1cc2c([nH]c(=O)c3ccccc32)s1 [Example 3, 2-[(Dimethylamino)methyl]thieno[2,3-c]isoquinolin-5(4H)-one hydrochloride] |  |  |  |  |  |  |  | 260 |  |  | 
11 | COc1ccc2c(=O)[nH]c3sc(CN(C)C)cc3c2c1 [Example 8, 2-[(Dimethylamino)methyl]-8-methoxythieno[2,3-c]isoquinolin-5(4H)-one hydrochloride] |  |  |  |  |  |  |  | 2190 |  |  | 
12 | CN(C)Cc1cc2c([nH]c(=O)c3cc(F)cc(O)c32)s1 [Example 7, 2-[(Dimethylamino)methyl]-7-fluoro-9-hydroxythieno[2,3-c]isoquinolin-5(4H)-one hydrochloride] |  |  |  |  |  |  |  | 38 |  |  | 
13 | COc1cccc2c(=O)[nH]c3sc(CN(C)C)cc3c12.Cl [Example 1, 2-Dimethylaminomethyl-9-methoxythieno[2,3-c]isoquinolin-5(4H)-one hydrochloride] |  |  |  |  |  |  |  | 137 |  |  | 264 to 265
14 | Br.CN(C)Cc1cc2c([nH]c(=O)c3cccc(O)c32)s1 [Example 2, 2-Dimethylaminomethyl-9-hydroxythieno[2,3-c]isoquinolin-5(4H)-one hydrobromide] | 15 | 19 | 0.05 | 0.03 | > 30 | 17 | 1.7 | 28 | 6 | < 1 | 
15 | CN(C)Cc1cc2c([nH]c(=O)c3ccc(Cl)cc32)s1 [Example 6, 8-Chloro-2-[(dimethylamino)methyl]thieno[2,3-c]isoquinolin-5(4H)-one hydrochloride] |  |  |  |  |  |  |  | 2250 |  |  | 
16 | O=c1[nH]c2sc(CN3CCOCC3)cc2c2c(O)cccc12 [Example 10, 9-Hydroxy-2-(morpholin-4-ylmethyl)thieno[2,3-c]isoquinolin-5(4H)-one] | > 30 | > 30 | 0.81 | 0.04 | > 30 | 30 | 3.1 | 5.6 | 30 | > 30 | 
17 | CN(C)Cc1cc2c([nH]c(=O)c3ccccc32)o1 [Example 9, 2-[(Dimethylamino)methyl]furo[2,3-c]isoquinolin-5(4H)-one hydrochloride] |  |  |  |  |  |  |  | 161 |  |  | 
